Results: US10138227B2, “Heteroaryl substituted pyridines and methods of use” (AbbVie S.à.r.l., priority 2016, dated 2018)

What was measured:
Assay type in all cases: cell-based
CFTR ΔF508 = molecular target: T1, CFTR ΔF508 (Homo sapiens, UniProt P13569, DEL508-508); experiment: TECC assay in CFTR ΔF508, primary bronchial epithelial cells; conditions: bronchial epithelial cells from CF patients homozygous for ΔF508, treated with 3 μM VX809 or 0.15 μM GLPG2222; increase in Isc after forskolin
T1 construct: bronchial epithelial cells isolated from CF patients homozygous for the CFTR ΔF508 mutation; host or cells: primary human bronchial epithelial cells (hAEC-CF) from CF patients homozygous for ΔF508, pre-treated with the corrector VX809 or GLPG2222
Procedure: The TECC (Transepithelial Clamp Circuit, EP-design) assay measures the functionality of the cystic fibrosis Transmembrane Conductance regulator (CFTR) by measuring the short circuit current (ISC) generated over the basolateral and apical membrane of lung epithelial cells. In TECC the transepithelial potential PD and transepithelial resistance (Rt) are measured in an open circuit and transformed to ISC using Ohm's law. 24 Wells can be measured simultaneously allowing a higher throughput compared to Ussing chambers.
For this purpose, bronchial epithelial cells isolated from CF patients homozygous for the CFTR ΔF508 mutation (hAEC-CF, McGill, UNC) are plated on type IV collagen-coated Transwell® supports (Costar). Human airway epithelia are generated by provision of an air liquid interface for 21 days to form well-differentiated polarized cultures that resemble in vivo pseudo-stratified ciliated epithelium (Fulcher, M. L., Gabriel, S., Burns, K. A., Yankaskas, J. R., Randell, S. H., 2005. Well-differentiated human airway epithelial cell cultures. Methods Mol. Med. 107, 183-206). […]
When subjected to this protocol, the following values were obtained. The difference between ΔIsc measured as DMSO (baseline), and the ΔIsc measured with the compound tested.

CFTR ΔF508 mutant = molecular target: T2, CFTR ΔF508 mutant (Homo sapiens, UniProt P13569, DEL508-508); experiment: YFP-halide influx assay for the CFTR-ΔF508 mutation; conditions: CFBE41o- cells expressing CFTR ΔF508 and YFP reporter, forskolin 10.67 μM; for EC50: (1-F/F0) vs concentration
T2 construct: expressed in transfected cells; host or cells: CFBE41o- cells transduced with adenoviral vectors
In short: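 CFBE41o- cells were adenovirally transduced with CFTR ΔF508 and YFP H148Q/I152L/F47L, then corrected 24 h at 27 °C or with a CFTR modulator 24 h at 37 °C. Iodide-induced quench was recorded over 2 min. EC50 was derived from 1-F/F0 (36 s vs pre-injection) plotted against compound concentration.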

CFTR G551D mutant = molecular target: T3, CFTR G551D mutant (Homo sapiens, UniProt P13569, G551D); experiment: YFP-halide influx assay for the CFTR-G551D mutation; conditions: HEK293 cells expressing CFTR G551D and YFP reporter; forskolin 10.67 μM
T3 construct: expressed in transfected cells; host or cells: HEK293 cells, reverse-transfected with plasmid vectors
Text: (§1) The YFP halide influx assay measured the functionality of the cystic fibrosis Transmembrane Conductance regulator (CFTR) channels. The assay was used to evaluate the capacity of compounds to increase the channel opening of existing mutant CFTR channels in the membrane. It makes use of the observation that the yellow fluorescent protein (YFP) variant YFP H148Q, I152L, F47L has its fluorescence substantially quenched by halide ions like Cl^− and I^− (Galietta, L. J. V., Haggie, P. M., Verkman, A. S., 2001. Green fluorescent protein-based halide indicators with improved chloride and iodide affinities. FEBS Lett. 499, 220-224. doi:10.1016/S0014-5793(01)02561-3).
(§2) For this purpose, HEK293-cells were seeded in 96 well plates. During seeding, the cells were reverse-transfected with plasmid vectors that direct the expression of the CFTR G551D mutant and of the YFP reporter. Cells were incubated at 37° C., 5% CO2 for 24 hours so as to allow for sufficient expression of the CFTR protein.
(§3) The I^−-induced quenching of fluorescence was recorded immediately after injection of I^− for 7 seconds. The capacity of a compound to increase the channel opening was directly correlated with the decrease in fluorescence, and was expressed as (1-(fluorescence after 7 seconds (F)/fluorescence before injection (F0))) and an EC50 was derived from a (1−F/F0) vs compound concentration plot.

CFTR-G178R = molecular target: T4, CFTR-G178R (Homo sapiens, UniProt P13569, G178R); experiment: YFP-halide influx assay for the CFTR-G178R
T4 construct: expressed in transfected cells; HEK293 with plasmid vectors inferred from the G551D protocol, to which the assay is called similar
Text: as §1, §2, §3
(§4) Similar YHA assays were developed for other channel gating defective or channel conductance defective CFTR mutants to determine effect of compound on channel activity. Examples of mutants are G178R, G1349D, S549N, R117H, R334W. This assay is also used for additional class I CFTR mutants, including G542X, W1282X; class II mutants including N1303K, and for class III mutants including S1251N; or wild-type CFTR.

CFTR-S549N = molecular target: T5, CFTR-S549N (Homo sapiens, UniProt P13569, S549N); experiment: YFP-halide influx assay for the CFTR-S549N
T5 construct: expressed in transfected cells; HEK293 with plasmid vectors inferred from the G551D protocol, to which the assay is called similar
Text: as §1, §2, §3, §4

CFTR-R117H = molecular target: T6, CFTR-R117H (Homo sapiens, UniProt P13569, R117H); experiment: YFP-halide influx assay for the CFTR-R117H
T6 construct: expressed in transfected cells; HEK293 with plasmid vectors inferred from the G551D protocol, to which the assay is called similar
Text: as §1, §2, §3, §4

CFTR-G1349D = molecular target: T7, CFTR-G1349D (Homo sapiens, UniProt P13569, G1349D); experiment: YFP-halide influx assay for the CFTR-G1349D
T7 construct: expressed in transfected cells; HEK293 with plasmid vectors inferred from the G551D protocol, to which the assay is called similar
Text: as §1, §2, §3, §4

T2 sequence (P13569 with tags, fused parts or gaps DEL508-508): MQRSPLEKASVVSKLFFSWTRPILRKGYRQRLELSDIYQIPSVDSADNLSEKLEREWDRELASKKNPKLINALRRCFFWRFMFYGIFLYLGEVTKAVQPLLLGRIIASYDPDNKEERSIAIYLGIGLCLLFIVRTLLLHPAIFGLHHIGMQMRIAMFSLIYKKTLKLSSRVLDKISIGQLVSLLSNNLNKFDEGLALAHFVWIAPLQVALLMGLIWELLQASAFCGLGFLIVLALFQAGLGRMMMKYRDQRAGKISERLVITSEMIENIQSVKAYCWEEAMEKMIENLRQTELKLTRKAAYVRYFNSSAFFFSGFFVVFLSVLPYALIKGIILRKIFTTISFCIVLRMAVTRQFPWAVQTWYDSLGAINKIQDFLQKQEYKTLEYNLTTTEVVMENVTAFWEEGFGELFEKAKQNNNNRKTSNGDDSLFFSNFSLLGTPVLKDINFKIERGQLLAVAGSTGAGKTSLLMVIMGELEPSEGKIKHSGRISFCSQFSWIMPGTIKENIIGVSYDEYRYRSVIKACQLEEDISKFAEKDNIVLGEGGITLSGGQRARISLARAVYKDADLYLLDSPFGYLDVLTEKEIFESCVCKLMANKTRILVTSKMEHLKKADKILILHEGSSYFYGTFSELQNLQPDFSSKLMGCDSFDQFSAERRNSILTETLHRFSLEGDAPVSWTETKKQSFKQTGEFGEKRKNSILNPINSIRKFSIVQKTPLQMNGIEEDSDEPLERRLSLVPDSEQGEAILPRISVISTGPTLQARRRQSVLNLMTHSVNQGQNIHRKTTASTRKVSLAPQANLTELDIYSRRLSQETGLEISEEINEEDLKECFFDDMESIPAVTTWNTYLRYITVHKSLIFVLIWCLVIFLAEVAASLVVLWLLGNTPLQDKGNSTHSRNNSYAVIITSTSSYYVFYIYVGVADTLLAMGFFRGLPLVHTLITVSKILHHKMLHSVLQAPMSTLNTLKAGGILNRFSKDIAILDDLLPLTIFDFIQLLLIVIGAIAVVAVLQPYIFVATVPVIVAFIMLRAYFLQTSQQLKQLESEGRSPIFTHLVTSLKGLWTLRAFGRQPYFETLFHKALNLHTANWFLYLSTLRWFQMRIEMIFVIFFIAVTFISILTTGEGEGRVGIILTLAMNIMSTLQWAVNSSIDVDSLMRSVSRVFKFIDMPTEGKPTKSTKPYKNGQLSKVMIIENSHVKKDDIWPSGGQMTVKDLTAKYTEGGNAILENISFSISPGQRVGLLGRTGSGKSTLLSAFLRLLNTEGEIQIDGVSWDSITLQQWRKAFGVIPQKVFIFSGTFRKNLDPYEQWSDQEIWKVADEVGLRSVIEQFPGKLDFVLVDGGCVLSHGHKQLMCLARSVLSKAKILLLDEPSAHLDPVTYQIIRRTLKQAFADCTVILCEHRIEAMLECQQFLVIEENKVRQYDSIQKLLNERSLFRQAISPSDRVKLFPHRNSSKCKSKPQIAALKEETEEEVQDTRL
T7 sequence (P13569 whole entry G1349D): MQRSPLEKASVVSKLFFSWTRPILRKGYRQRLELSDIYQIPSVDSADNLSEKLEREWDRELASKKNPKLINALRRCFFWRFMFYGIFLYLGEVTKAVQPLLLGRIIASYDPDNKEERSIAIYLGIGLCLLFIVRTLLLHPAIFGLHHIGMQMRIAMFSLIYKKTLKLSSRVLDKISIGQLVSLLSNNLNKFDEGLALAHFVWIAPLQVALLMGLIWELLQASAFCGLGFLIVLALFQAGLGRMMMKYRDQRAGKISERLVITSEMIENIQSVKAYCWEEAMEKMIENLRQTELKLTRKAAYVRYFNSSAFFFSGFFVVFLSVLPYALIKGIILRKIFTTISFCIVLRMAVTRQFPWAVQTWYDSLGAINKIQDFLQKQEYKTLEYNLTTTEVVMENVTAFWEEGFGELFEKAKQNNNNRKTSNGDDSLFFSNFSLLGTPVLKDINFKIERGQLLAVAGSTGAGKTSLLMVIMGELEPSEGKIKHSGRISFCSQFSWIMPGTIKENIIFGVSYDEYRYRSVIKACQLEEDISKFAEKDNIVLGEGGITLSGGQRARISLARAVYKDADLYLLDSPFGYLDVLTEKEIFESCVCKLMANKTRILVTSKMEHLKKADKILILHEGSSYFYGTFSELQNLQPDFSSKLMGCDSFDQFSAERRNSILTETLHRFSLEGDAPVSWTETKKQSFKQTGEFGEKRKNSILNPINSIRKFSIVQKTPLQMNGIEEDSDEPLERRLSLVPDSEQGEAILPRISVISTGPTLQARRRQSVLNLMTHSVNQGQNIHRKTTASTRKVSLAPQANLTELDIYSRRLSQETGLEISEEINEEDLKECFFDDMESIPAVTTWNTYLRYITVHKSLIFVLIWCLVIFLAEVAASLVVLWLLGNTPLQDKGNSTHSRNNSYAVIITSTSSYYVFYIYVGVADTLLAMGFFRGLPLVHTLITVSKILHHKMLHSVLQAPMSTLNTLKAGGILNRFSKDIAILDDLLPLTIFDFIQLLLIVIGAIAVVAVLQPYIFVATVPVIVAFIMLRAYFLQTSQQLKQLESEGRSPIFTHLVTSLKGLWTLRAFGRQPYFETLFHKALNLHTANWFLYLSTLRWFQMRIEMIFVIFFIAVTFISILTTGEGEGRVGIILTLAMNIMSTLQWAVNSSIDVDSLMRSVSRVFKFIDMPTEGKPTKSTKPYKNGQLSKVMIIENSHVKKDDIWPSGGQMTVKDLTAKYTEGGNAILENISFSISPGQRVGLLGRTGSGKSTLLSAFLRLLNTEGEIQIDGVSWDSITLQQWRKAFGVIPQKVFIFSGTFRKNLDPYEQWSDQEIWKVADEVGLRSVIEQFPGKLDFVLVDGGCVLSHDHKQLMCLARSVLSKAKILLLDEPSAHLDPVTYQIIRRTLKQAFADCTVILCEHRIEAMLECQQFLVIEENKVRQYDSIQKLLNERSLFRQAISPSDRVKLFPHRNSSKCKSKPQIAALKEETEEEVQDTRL
T5 sequence (P13569 whole entry S549N): as the sequence (P13569 whole entry G1349D) above, with S549N, D1349G counted along it
T6 sequence (P13569 whole entry R117H): as the sequence (P13569 whole entry G1349D) above, with R117H, D1349G counted along it
T4 sequence (P13569 whole entry G178R): as the sequence (P13569 whole entry G1349D) above, with G178R, D1349G counted along it
T3 sequence (P13569 whole entry G551D): as the sequence (P13569 whole entry G1349D) above, with G551D, D1349G counted along it
T1 sequence (P13569 with tags, fused parts or gaps DEL508-508): as the sequence (P13569 with tags, fused parts or gaps DEL508-508) above

SMILES	EC50 (CFTR ΔF508) [nM]	% Activation (CFTR ΔF508 mutant) [%]	EC50 (CFTR ΔF508 mutant) [nM]	% Activation (CFTR G551D mutant) [%]	EC50 (CFTR G551D mutant) [nM]	% Activation (CFTR-G178R) [%]	EC50 (CFTR-G178R) [nM]	% Activation (CFTR-S549N) [%]	EC50 (CFTR-S549N) [nM]	% Activation (CFTR-R117H) [%]	EC50 (CFTR-R117H) [nM]	% Activation (CFTR-G1349D) [%]	EC50 (CFTR-G1349D) [nM]
Nc1cc(S(=O)(=O)c2ccc(OC(F)(F)F)cc2)cnc1-c1nnc(C(O)C(F)(F)F)o1 (stereo not shown) [Compound 4, 1-(5-{3-amino-5-[4-(trifluoromethoxy)benzene-1-sulfonyl]pyridin-2-yl}-1,3,4-oxadiazol-2-yl)-2,2,2-trifluoroethan-1-ol]	6	103.69	1.8	34.3	> 6770	–	–	–	–	–	–	–	–
CC(O)(c1nnc(-c2ncc(S(=O)(=O)c3ccc(OC(F)(F)F)cc3)cc2N)o1)C(F)(F)F (stereo not shown) [Compound 3, 2-(5-{3-amino-5-[4-(trifluoromethoxy)benzene-1-sulfonyl]pyridin-2-yl}-1,3,4-oxadiazol-2-yl)-1,1,1-trifluoropropan-2-ol]	–	120.51	2.36	49.0	181	57.4	1440	56.3	55.9	89.0	35.5	58.6	44.9
Nc1cc(S(=O)(=O)c2ccc(OC(F)(F)F)cc2)cnc1-c1nnc(CO)o1 [Compound 1, (5-{3-amino-5-[4-(trifluoromethoxy)benzene-1-sulfonyl]pyridin-2-yl}-1,3,4-oxadiazol-2-yl)methanol]	40	113.82	5.57	37.7	> 10000	67.2	196	75.4	275	88.7	184	72.8	137
Nc1cc(S(=O)(=O)c2ccc(OC(F)(F)F)cc2)cnc1-c1ncc(CO)s1 [Compound 5, (2-{3-amino-5-[4-(trifluoromethoxy)benzene-1-sulfonyl]pyridin-2-yl}-1,3-thiazol-5-yl)methanol]	–	58.29	> 667	0.3	> 10000	–	–	–	–	–	–	–	–
